The values below come from article PMC3990405 (Journal of controlled release : official journal of the …, 2013).

Molecules are shown by their SMILES. Like-named read-outs stand apart in the source and are kept apart here.

The subject of data set [1] is TNFα-induced cytotoxicity in L929 fibrosarcoma cells. The data set is described as follows: L929 cytoprotection assay against TNFα. The class given is cell-based, murine.
For data set [2], the system named is L929 cells. Description: L929 cell proliferation / cytotoxicity without TNFα. Particulars: curcumin in DMSO; not shown. The class given is cell-based, murine.
Data set [3] deals with phosphorylated NF-κB p65. Description: TNF-induced NF-κB p65 phosphorylation in U937 monocytes. The class given is cell-based, human.
Data set [4] in a line: Plasma pharmacokinetics after i.m. injection proximal to the sciatic nerve. The class given is in vivo, C57BL/6 mice.
The format of data set [5] is in vivo, C57BL/6 mice.
Setting [6] is: female, C57BL/6, mouse, plasma, im, 40 μl of 6 mM.

In data set [1] (Mus musculus, L929, 24 h), `COc1cc(/C=C/C(=O)CC(=O)/C=C/c2ccc(O)c(OC)c2)ccc1O` [curcumin] showed an IC50 of 13.5 µM. Further, in data set [1] (logistic fit, Equation 1), the “Hill slope, k” value stood at 1.472. For the same compound, in data set [2], the “dose with some cytotoxic effects” value is reported as “above 30 μM”. In data set [3] (high (5 μM) and low (0.5 μM) doses, 50 ng/ml TNFα 10 min), the “attenuation of TNF-induced increases in NF-kB phosphorylation” value is “able to attenuate TNF-induced increases in NF-kB phosphorylation in a dose-dependent manner”. Also, the “effect on basal NF-kB phosphorylation” value in data set [3] (high (5 μM) and low (0.5 μM) doses, no TNFα) is listed as “no statistically significant effect”. Further, the “attenuation of TNF-induced monocyte NF-κB activation” value in data set [3] (high micromolar dose (5 μM), 2 h pre-incubation, 50 ng/ml TNFα 10 min) is “equally attenuated”. In addition, the area under the curve (AUC) in data set [4] (setting [6]) came to 0.87 ± 0.13 µM·h. Besides, in data set [4] (setting [6]), the time to peak (Tmax) is 1 to 2 h. In addition, the “time window with plasma curcumin significantly above naïve plasma” value in data set [4] (mouse, i.m., one-way ANOVA p < 0.0001) was in the range of 0.5 to 4 h. Besides, the “Mass of curcumin in injection-site tissue” value in data set [5] (0 h, maximum recoverable, injected after sacrifice, n = 1) amounted to 158 nmol; in data set [5] (2 h, mean ± SEM) it was 98 ± 24 nmol; in data set [5] (48 h, mean ± SEM) it was 0.67 ± 0.004 nmol; in data set [5] (96 h, mean ± SEM) it was 0.39 ± 0.12 nmol. The “%ID (nmol/nmol) at injection site” value is on record as 59 %ID in data set [5] (0 h, maximum recoverable, n = 1); 36 ± 8.9 %ID in data set [5] (2 h, mean ± SEM); 0.25 ± 0.002 %ID in data set [5] (48 h, mean ± SEM); 0.14 ± 0.04 %ID in data set [5] (96 h, mean ± SEM).
